The values that follow come from patent EP4635969A1, “NOVEL GLUCOCORTICOID, METHOD FOR PREPARING SAME, AND USE THEREOF” (Tianjin Pharmaceutical Biotechnology Co., Ltd., priority 2022, dated 2024).

Molecules are shown by their SMILES. Where two headings read alike, the source gives them in different places.

The target in series [1] is T1, mineralocorticoid receptor (MR) (Homo sapiens, UniProt P08235).
T1 sequence (P08235 726-984): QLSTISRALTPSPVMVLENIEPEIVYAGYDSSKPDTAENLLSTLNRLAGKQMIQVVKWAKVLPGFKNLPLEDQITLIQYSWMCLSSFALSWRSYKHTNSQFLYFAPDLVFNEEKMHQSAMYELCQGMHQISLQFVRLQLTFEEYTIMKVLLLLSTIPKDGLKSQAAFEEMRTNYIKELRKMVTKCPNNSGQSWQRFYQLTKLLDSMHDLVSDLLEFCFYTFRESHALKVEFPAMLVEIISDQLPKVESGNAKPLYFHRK
Put plainly: Assay for agonist activity on mineralocorticoid receptor (luciferase reporter, HEK293 cells transfected with pBIND-MR plasmid). Format: cell-based. The note with it: for EC50: EC50 of agonist activity, HEK293 reporter cells, top concentration 50 µM, read-out: Nuclear receptor enzyme activity (nM) MR; for Target selectivity MR/GR: ratio of EC50 values. How it is done: (§1) Pharmacological Example 2: Assay for Agonist Activity on Mineralocorticoid Receptor (MR) and Progesterone Receptor (PR)
(§2) Test compound stock solutions: The test compounds (compounds 4, 5, 7, 8, 9, 11, 13, 16, 17, 18, 22, 23, 24, 34, 35, 36, 38, 41, 45, 47, 53, 55, and 59) were accurately weighed, dissolved in DMSO to prepare stock solutions at a concentration of 20 mM, and stored at -20 °C.
(§3) The test compounds were subjected to a 4-fold serial dilution starting from an initial concentration of 50 µ M, generating a 12-point concentration gradient with duplicate wells for each concentration. The blank control consisted of 0.1% DMSO.
(§4) The HEK293 stable cell lines […] transfected with mineralocorticoid receptor (MR) and progesterone receptor (PR) (ICE Bioscience, Lot No. TYP-20220819, TPJ-20220812) were cultured in Dulbecco's Modified Eagle Medium (DMEM) supplemented with 10% fetal bovine serum (FBS) and 200 µ g/ml Hygromycin B in a cell incubator containing 5% CO2 at 37 °C. The spent medium was aspirated, and the cells were washed once with phosphate-buffered saline (PBS). Then, 1 mL of TrypLE™ Express solution was added, and the cells were incubated at 37 °C for approximately 2 min. When the cells detached from the bottom of the cell culture dish, approximately 5 mL of pre-warmed complete medium at 37 °C was added. The cell suspension was gently pipetted with a pipette to dissociate clumped cells. The cell suspension was transferred to a sterile centrifuge tube and centrifuged at 1000 rpm for 5 min to pellet the cells for experiments or subculture..
(§5) HEK293 cells were digested and seeded into 6-cm culture dishes. The pBIND-MR and pBIND-PR plasmids were separately transfected into the HEK293 cells using a transfection reagent, resulting in HEK293 cells successfully transfected with the pBIND-MR and pBIND-PR plasmids, respectively. The cells were resuspended in phenol red-free DMEM medium containing 5% charcoal-stripped serum, counted, and then seeded into 96-well plates. The test compounds were added, and the plates were then incubated in an incubator. The luminescence signal values were measured using a multimode microplate reader following the instructions of the luciferase assay kit. The EC50 values of each test compound were calculated using the nonlinear fitting formula with GraphPad Prism 8.0 software.
In general terms: A reporter such as luciferase makes a cellular process visible.

The target in series [2] is T2, progesterone receptor (PR) (Homo sapiens, UniProt P06401).
T2 sequence (P06401 678-933): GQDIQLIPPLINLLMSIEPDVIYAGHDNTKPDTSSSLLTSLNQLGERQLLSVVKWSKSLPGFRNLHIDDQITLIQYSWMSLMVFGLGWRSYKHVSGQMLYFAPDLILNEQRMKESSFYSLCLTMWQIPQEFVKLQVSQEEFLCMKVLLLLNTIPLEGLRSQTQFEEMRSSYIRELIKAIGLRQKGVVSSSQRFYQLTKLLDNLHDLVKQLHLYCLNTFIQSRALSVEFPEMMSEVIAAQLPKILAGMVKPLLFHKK
Nature of the series: Assay for agonist activity on progesterone receptor (luciferase reporter, HEK293 cells transfected with pBIND-PR plasmid). Format: cell-based. The conditions noted are these: for EC50: EC50 of agonist activity, HEK293 reporter cells, top concentration 50 µM, read-out: Nuclear receptor enzyme activity (nM) PR; for Target selectivity PR/GR: ratio of EC50 values. As to the method:
as §1, §2, §3, §4, §5

Series [3] has as its target T3, glucocorticoid receptor (GR) (Homo sapiens, UniProt P04150).
T3 sequence (P04150 521-777): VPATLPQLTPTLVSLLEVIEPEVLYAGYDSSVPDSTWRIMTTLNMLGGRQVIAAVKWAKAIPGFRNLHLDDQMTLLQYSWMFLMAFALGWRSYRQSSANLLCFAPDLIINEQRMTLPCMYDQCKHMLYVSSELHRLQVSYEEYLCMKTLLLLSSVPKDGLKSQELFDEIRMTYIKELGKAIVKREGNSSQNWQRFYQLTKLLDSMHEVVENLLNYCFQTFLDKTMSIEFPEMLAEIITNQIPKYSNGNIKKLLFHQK
Nature of the series: Assay for agonist activity on glucocorticoid receptor (luciferase reporter, HEK293 cells transfected with pBIND-GR plasmid). In kind it is cell-based. The method, boiled down:
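Readout is luciferase luminescence, with EC50 derived by nonlinear fitting. Compounds ran at 10 concentrations (4-fold steps, top 10 µM, duplicate wells) on pBIND-GR-transfected HEK293 cells in phenol red-free DMEM plus 5% charcoal-stripped serum; 0.1% DMSO served as blank.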

The test system of series [4] is intraocular pressure of guinea pigs. Put plainly: Adverse reactions of continuous ocular administration: intraocular pressure. Format: in vivo. How it is done:
Pharmacological Example 9: Experiment on Adverse Reactions of Continuous Ocular Administration in Guinea Pigs
Test samples: Compounds 17 and 23 were prepared as 5 mg/5 mL ophthalmic suspensions with reference to the formulation of Fluorometholone Eye Drops, and stored at room temperature protected from light until use.
Positive control drug: Fluorometholone Eye Drops (specification: 5 mL/5 mg; Santen Pharmaceutical (CHINA) Co., Ltd.; Lot No.: 1FM6545), Loteprednol Etabonate Eye Drops (specification 0.5% (5 mg/mL); Shandong Bausch & Lomb Freda Pharmaceutical Co., Ltd; Lot No. 386521), stored at room temperature protected from light until use.
Animals: 50 guinea pigs, conventional grade, with an equal number of males and females, weighing 300-350 g..
Animal grouping: After 5 days of adaptive feeding, the guinea pigs were randomly divided into 5 groups based on body weight. Group 1 was the blank control group, and 50 µL of normal saline was dropped into the eyes (bilateral) of the guinea pigs. Groups 2 to 5 were the fluorometholone group, loteprednol group, compound 17 group, and compound 23 group, respectively, and the corresponding drugs were dropped into the eyes (bilateral) of the guinea pigs. Table 19. Animal grouping and drug administration dosages for the experiment on adverse reactions of continuous ocular administration in guinea pigs
Intraocular pressure measurement time: The intraocular pressure of animals in each group was measured before administration and on days 7, 14, 21, and 28 post-administration.

Where [5] appears, read: EC50 of agonist activity, HEK293 reporter cells, read-out: Nuclear receptor enzyme activity (nM) GR.
[6] abbreviates: HEK293 cells transfected with pBIND-GR, luciferase signal, read-out: GR agonist EC50.

Regarding `C[C@]12C=CC(=O)C=C1CC[C@H]1[C@@H]3C[C@H]4OC(c5ccc(SC6CCOC6=O)cc5)O[C@@]4(C(=O)CO)[C@@]3(C)C[C@H](O)[C@@]12F` (stereo partly drawn) [Compound 41, (6aS,6bR,7S,8aS,8bS,11aR,12aS,12bS)-6b-Fluoro-7-hydroxy-8b-(2-hydroxyacetyl)-6a,8a-dimethyl-10-(4-((2-oxotetrahydrofuran-3-yl)thio)phenyl)-1,2,6a,6b,7,8,8a,8b,11a,12,12a,12b-dodecahydr o-4H-naphtho[2',1':4,5]indeno[1,2-d][1,3]dioxol-4-one], the EC50 in series [1] is > 50000 nM; in series [2], > 50000 nM; in series [3] (setting [5]) it was 6.19 nM; in series [3] (setting [6]), 6.19 nM. For the same compound, the “Target selectivity MR/GR” value in series [1] was > 8077. The “Target selectivity PR/GR” value in series [2] is given as > 8077.
Turning to `C[C@]12C=CC(=O)C=C1CC[C@H]1[C@@H]3C[C@H]4OC(C5CCC(SC6CCOC6=O)CC5)O[C@@]4(C(=O)CO)[C@@]3(C)C[C@H](O)[C@@]12F` (stereo partly drawn) [Compound 45, (6aS,6bR,7S,8aS,8bS,11aR,12aS,12bS)-6b-Fluoro-7-hydroxy-8b-(2-hydroxyacetyl)-6a,8a-dimethyl-10-(4-((2-oxotetrahydrofuran-3-yl)thio)cyclohexyl)-1,2,6a,6b,7,8,8a,8b,11a,12,12a,12b-dodeca hydro-4H-naphtho[2',1':4,5]indeno[1,2-d][1,3]dioxol-4-one], the EC50 in series [1] is > 50000 nM; in series [2] it was > 50000 nM; in series [3] (setting [5]) it was 1.62 nM; in series [3] (setting [6]) it was 1.62 nM. The “Target selectivity MR/GR” value in series [1] was > 3.1×10^4. Further, in series [2], the “Target selectivity PR/GR” value was > 3.1×10^4.
Consider `C[C@]12C=CC(=O)C=C1CC[C@H]1[C@@H]3C[C@H]4OC(c5cnc(CSC6CCOC6=O)nc5)O[C@@]4(C(=O)CO)[C@@]3(C)C[C@H](O)[C@@]12F` (stereo partly drawn) [Compound 53, (6aS,6bR,7S,8aS,8bS,11aR,12aS,12bS)-6b-Fluoro-7-hydroxy-8b-(2-hydroxyacetyl)-6a,8a-dimethyl-10-(2-(((2-oxotetrahydrofuran-3-yl)thio)methyl)pyrimidin-5-yl)-1,2,6a,6b,7,8,8a,8b,11a,12,12a, 12b-dodecahydro-4H-naphtho[2',1':4,5]indeno[1,2-d][1,3]dioxol-4-one], for which the EC50 in series [1] was > 50000 nM; in series [2], > 50000 nM; in series [3] (setting [5]) it was 8.31 nM; in series [3] (setting [6]) it was 8.31 nM. Further, the “Target selectivity MR/GR” value in series [1] is 6017. The “Target selectivity PR/GR” value in series [2] was determined as 6017.
Consider `C[C@]12C=CC(=O)C=C1[C@@H](F)C[C@H]1[C@@H]3C[C@H]4OC(c5ccc(C[S+]([O-])C6CCOC6=O)cc5)O[C@@]4(C(=O)CO)[C@@]3(C)C[C@H](O)[C@@]12F` (stereo partly drawn) [Compound 55, (2S,6aS,6bR,7S,8aS,8bS,11aR,12aS,12bS)-2,6b-Difluoro-7-hydroxy-8b-(2-hydroxyacetyl)-6a,8a-dimethyl-10-(4-(((2-oxotetrahydrofuran-3-yl)sulfinyl)methyl)phenyl)-1,2,6a,6b,7,8,8a,8b,11a,12,1 2a,12b-dodecahydro-4H-naphtho[2',1':4,5]indeno[1,2-d][1,3]dioxol-4-one], for which the EC50 in series [1] was > 50000 nM; in series [2], > 50000 nM; in series [3] (setting [5]), 1.33 nM; in series [3] (setting [6]), 1.33 nM. The “Target selectivity MR/GR” value in series [1] is reported as > 3.8×10^4. Further, the “Target selectivity PR/GR” value in series [2] was > 3.8×10^4.
Regarding `C[C@]12C=CC(=O)C=C1CC[C@H]1[C@@H]3C[C@H]4OC(c5ccc(CS(=O)(=O)C6CCOC6=O)cc5)O[C@@]4(C(=O)CO)[C@@]3(C)C[C@H](O)[C@@]12F` (stereo partly drawn) [Compound 59, (6aS,6bR,7S,8aS,8bS,11aR,12aS,12bS)-6b-Fluoro-7-hydroxy-8b-(2-hydroxyacetyl)-6a,8a-dimethyl-10-(4-(((2-oxotetrahydrofuran-3-yl)sulfonyl)methyl)phenyl)-1,2,6a,6b,7,8,8a,8b,11a,12,12a,12b-dodecahydro-4H-naphtho[2',1':4,5]indeno[1,2-d][1,3]dioxol-4-one], the EC50 in series [1] was > 50000 nM; in series [2], > 50000 nM; in series [3] (setting [5]), 4.01 nM; in series [3] (setting [6]), 4.01 nM. For the same compound, the “Target selectivity MR/GR” value in series [1] is reported as > 1.2×10^4. The “Target selectivity PR/GR” value in series [2] is reported as > 1.2×10^4.
With `CCOC(=O)O[C@]1(C(=O)OCCl)CC[C@H]2[C@@H]3CCC4=CC(=O)C=C[C@]4(C)[C@H]3[C@@H](O)C[C@@]21C` [Loteprednol, Loteprednol Etabonate, reference compound], in series [4], the “intraocular pressure after continuous ocular administration” value is “intraocular pressure elevation was detected on day 7”. In addition, in series [4] (D0, before administration, 50 µL/eye (compounds and fluorometholone 1 mg/mL, loteprednol 5 mg/mL)), the “Intraocular pressure of guinea pigs (mmHg) D0” value is on record as 14.0 ± 1.8 mmHg. Also, the “Intraocular pressure of guinea pigs (mmHg) D7” value in series [4] (D7, 50 µL/eye (compounds and fluorometholone 1 mg/mL, loteprednol 5 mg/mL)) is reported as 19.0 ± 3.5 mmHg. Besides, the “Intraocular pressure of guinea pigs (mmHg) D14” value in series [4] (D14, 50 µL/eye (compounds and fluorometholone 1 mg/mL, loteprednol 5 mg/mL)) worked out at 18.5 ± 1.5 mmHg. Further, the “Intraocular pressure of guinea pigs (mmHg) D21” value in series [4] (D21, 50 µL/eye (compounds and fluorometholone 1 mg/mL, loteprednol 5 mg/mL)) is 18.5 ± 0.7 mmHg. The “Intraocular pressure of guinea pigs (mmHg) D28” value in series [4] (D28, 50 µL/eye (compounds and fluorometholone 1 mg/mL, loteprednol 5 mg/mL)) was found to be 19.5 ± 0.6 mmHg.
